# Measurements published in ChEMBL document CHEMBL5303573, “Mapping human microbiome drug metabolism by gut bacteria and their genes” (Nature, 2019).
# Conditions: bacteroides fragilis, 12 h, 2 µM
# Description: The drug is tested on Bacteroides fragilis strain: 3397 (T10) for biotransformation. The drug concentrations were measured before and after a 12-h incubation by liquid-chromatography-coupled mass spectrometry (LC–MS)
row,Structure (SMILES),Bacterial Biotransformation
1,CC(C)(C(=O)O)c1ccc(C(O)CCCN2CCC(C(O)(c3ccccc3)c3ccccc3)CC2)cc1 (configuration not stated) [FEXOFENADINE],Compound NOT metabolized
2,CC(=O)OCC(CCn1cnc2cnc(N)nc21)COC(C)=O [FAMCICLOVIR],Compound metabolized
3,Nc1nc(N)nc(-c2cc(Cl)ccc2Cl)n1.O=C(O)/C=C\C(=O)O [IRSOGLADINE MALEATE],Compound NOT metabolized

# Conditions: bacteroides thetaiotaomicron, 12 h, 2 µM
# Description: The drug is tested on Bacteroides thetaiotaomicron strain: VPI-5482 for biotransformation. The drug concentrations were measured before and after a 12-h incubation by liquid-chromatography-coupled mass spectrometry (LC–MS)
row,Structure (SMILES),Bacterial Biotransformation
1,CC(C)(C(=O)O)c1ccc(C(O)CCCN2CCC(C(O)(c3ccccc3)c3ccccc3)CC2)cc1 (configuration not stated) [FEXOFENADINE],Compound NOT metabolized
2,CC(=O)OCC(CCn1cnc2cnc(N)nc21)COC(C)=O [FAMCICLOVIR],Compound metabolized
3,Nc1nc(N)nc(-c2cc(Cl)ccc2Cl)n1.O=C(O)/C=C\C(=O)O [IRSOGLADINE MALEATE],Compound NOT metabolized

# Assay: The drug is tested on Odoribacter splanchnicus strain: fecal isolate for biotransformation. The drug concentrations were measured before and after a 12-h incubation by liquid-chromatography-coupled mass spectrometry (LC–MS)
# Conditions: 2 µM
row,Structure (SMILES),Bacterial Biotransformation
1,CC(C)(C(=O)O)c1ccc(C(O)CCCN2CCC(C(O)(c3ccccc3)c3ccccc3)CC2)cc1 (configuration not stated) [FEXOFENADINE],Compound NOT metabolized
2,CC(=O)OCC(CCn1cnc2cnc(N)nc21)COC(C)=O [FAMCICLOVIR],Compound metabolized
3,Nc1nc(N)nc(-c2cc(Cl)ccc2Cl)n1.O=C(O)/C=C\C(=O)O [IRSOGLADINE MALEATE],Compound NOT metabolized

# Assay: The drug is tested on Bacteroides vulgatus strain: ATCC8482 for biotransformation. The drug concentrations were measured before and after a 12-h incubation by liquid-chromatography-coupled mass spectrometry (LC–MS)
# Conditions: phocaeicola vulgatus, 2 µM
row,Structure (SMILES),Bacterial Biotransformation
1,CC(C)(C(=O)O)c1ccc(C(O)CCCN2CCC(C(O)(c3ccccc3)c3ccccc3)CC2)cc1 (configuration not stated) [FEXOFENADINE],Compound NOT metabolized
2,CC(=O)OCC(CCn1cnc2cnc(N)nc21)COC(C)=O [FAMCICLOVIR],Compound metabolized
3,Nc1nc(N)nc(-c2cc(Cl)ccc2Cl)n1.O=C(O)/C=C\C(=O)O [IRSOGLADINE MALEATE],Compound NOT metabolized

# Assay: The drug is tested on Clostridium sp. strain: fecal isolate for biotransformation. The drug concentrations were measured before and after a 12-h incubation by liquid-chromatography-coupled mass spectrometry (LC–MS)
# Conditions: 2 µM
row,Structure (SMILES),Bacterial Biotransformation
1,CC(C)(C(=O)O)c1ccc(C(O)CCCN2CCC(C(O)(c3ccccc3)c3ccccc3)CC2)cc1 (configuration not stated) [FEXOFENADINE],Compound NOT metabolized
2,CC(=O)OCC(CCn1cnc2cnc(N)nc21)COC(C)=O [FAMCICLOVIR],Compound NOT metabolized
3,Nc1nc(N)nc(-c2cc(Cl)ccc2Cl)n1.O=C(O)/C=C\C(=O)O [IRSOGLADINE MALEATE],Compound NOT metabolized

# Conditions: anaerostipes sp., 12 h, 2 µM
# Description: The drug is tested on Anaerostipes sp. strain: fecal isolate for biotransformation. The drug concentrations were measured before and after a 12-h incubation by liquid-chromatography-coupled mass spectrometry (LC–MS)
row,Structure (SMILES),Bacterial Biotransformation
1,CC(C)(C(=O)O)c1ccc(C(O)CCCN2CCC(C(O)(c3ccccc3)c3ccccc3)CC2)cc1 (configuration not stated) [FEXOFENADINE],Compound NOT metabolized
2,CC(=O)OCC(CCn1cnc2cnc(N)nc21)COC(C)=O [FAMCICLOVIR],Compound NOT metabolized
3,Nc1nc(N)nc(-c2cc(Cl)ccc2Cl)n1.O=C(O)/C=C\C(=O)O [IRSOGLADINE MALEATE],Compound NOT metabolized

# Assay: The drug is tested on Bifidobacterium breve strain: DSM20213 for biotransformation. The drug concentrations were measured before and after a 12-h incubation by liquid-chromatography-coupled mass spectrometry (LC–MS)
# Conditions: 2 µM
row,Structure (SMILES),Bacterial Biotransformation
1,CC(C)(C(=O)O)c1ccc(C(O)CCCN2CCC(C(O)(c3ccccc3)c3ccccc3)CC2)cc1 (configuration not stated) [FEXOFENADINE],Compound NOT metabolized
2,CC(=O)OCC(CCn1cnc2cnc(N)nc21)COC(C)=O [FAMCICLOVIR],Compound NOT metabolized
3,Nc1nc(N)nc(-c2cc(Cl)ccc2Cl)n1.O=C(O)/C=C\C(=O)O [IRSOGLADINE MALEATE],Compound NOT metabolized

# Assay: The drug is tested on Blautia hansenii strain: DSM20583 for biotransformation. The drug concentrations were measured before and after a 12-h incubation by liquid-chromatography-coupled mass spectrometry (LC–MS)
# Conditions: 2 µM
row,Structure (SMILES),Bacterial Biotransformation
1,CC(C)(C(=O)O)c1ccc(C(O)CCCN2CCC(C(O)(c3ccccc3)c3ccccc3)CC2)cc1 (configuration not stated) [FEXOFENADINE],Compound NOT metabolized
2,CC(=O)OCC(CCn1cnc2cnc(N)nc21)COC(C)=O [FAMCICLOVIR],Compound NOT metabolized
3,Nc1nc(N)nc(-c2cc(Cl)ccc2Cl)n1.O=C(O)/C=C\C(=O)O [IRSOGLADINE MALEATE],Compound NOT metabolized

# Assay: The drug is tested on Providencia rettgeri strain: DSM1131 for biotransformation. The drug concentrations were measured before and after a 12-h incubation by liquid-chromatography-coupled mass spectrometry (LC–MS)
# Assay type: ADME
# Parameters: dose 2 uM, timepoint 0 vs 12 hours
# Conditions: 2 µM
row,Structure (SMILES),Bacterial Biotransformation
1,CC(C)(C(=O)O)c1ccc(C(O)CCCN2CCC(C(O)(c3ccccc3)c3ccccc3)CC2)cc1 (configuration not stated) [FEXOFENADINE],Compound NOT metabolized
2,CC(=O)OCC(CCn1cnc2cnc(N)nc21)COC(C)=O [FAMCICLOVIR],Compound NOT metabolized
3,Nc1nc(N)nc(-c2cc(Cl)ccc2Cl)n1.O=C(O)/C=C\C(=O)O [IRSOGLADINE MALEATE],Compound NOT metabolized

# Conditions: bifidobacterium adolescentis, 12 h, 2 µM
# Description: The drug is tested on Bifidobacterium adolescentis strain: ATCC 15703 for biotransformation. The drug concentrations were measured before and after a 12-h incubation by liquid-chromatography-coupled mass spectrometry (LC–MS)
row,Structure (SMILES),Bacterial Biotransformation
1,CC(C)(C(=O)O)c1ccc(C(O)CCCN2CCC(C(O)(c3ccccc3)c3ccccc3)CC2)cc1 (configuration not stated) [FEXOFENADINE],Compound NOT metabolized
2,Nc1nc(N)nc(-c2cc(Cl)ccc2Cl)n1.O=C(O)/C=C\C(=O)O [IRSOGLADINE MALEATE],Compound NOT metabolized

# Assay: The drug is tested on Enterococcus faecalis strain: V583 for biotransformation. The drug concentrations were measured before and after a 12-h incubation by liquid-chromatography-coupled mass spectrometry (LC–MS)
# Conditions: 2 µM
row,Structure (SMILES),Bacterial Biotransformation
1,CC(C)(C(=O)O)c1ccc(C(O)CCCN2CCC(C(O)(c3ccccc3)c3ccccc3)CC2)cc1 (configuration not stated) [FEXOFENADINE],Compound NOT metabolized
2,Nc1nc(N)nc(-c2cc(Cl)ccc2Cl)n1.O=C(O)/C=C\C(=O)O [IRSOGLADINE MALEATE],Compound NOT metabolized

# Conditions: parabacteroides johnsonii, 12 h, 2 µM
# Description: The drug is tested on Parabacteroides johnsonii strain: DSM18315 for biotransformation. The drug concentrations were measured before and after a 12-h incubation by liquid-chromatography-coupled mass spectrometry (LC–MS)
row,Structure (SMILES),Bacterial Biotransformation
1,CC(C)(C(=O)O)c1ccc(C(O)CCCN2CCC(C(O)(c3ccccc3)c3ccccc3)CC2)cc1 (configuration not stated) [FEXOFENADINE],Compound NOT metabolized
2,CC(=O)OCC(CCn1cnc2cnc(N)nc21)COC(C)=O [FAMCICLOVIR],Compound metabolized
3,Nc1nc(N)nc(-c2cc(Cl)ccc2Cl)n1.O=C(O)/C=C\C(=O)O [IRSOGLADINE MALEATE],Compound metabolized

# Assay: The drug is tested on Clostridium scindens strain: ATCC35704 for biotransformation. The drug concentrations were measured before and after a 12-h incubation by liquid-chromatography-coupled mass spectrometry (LC–MS)
# Conditions: 2 µM
row,Structure (SMILES),Bacterial Biotransformation
1,CC(C)(C(=O)O)c1ccc(C(O)CCCN2CCC(C(O)(c3ccccc3)c3ccccc3)CC2)cc1 (configuration not stated) [FEXOFENADINE],Compound NOT metabolized
2,CC(=O)OCC(CCn1cnc2cnc(N)nc21)COC(C)=O [FAMCICLOVIR],Compound NOT metabolized
3,Nc1nc(N)nc(-c2cc(Cl)ccc2Cl)n1.O=C(O)/C=C\C(=O)O [IRSOGLADINE MALEATE],Compound NOT metabolized

# Assay: The drug is tested on Clostridium sporogenes strain: ATCC15579 for biotransformation. The drug concentrations were measured before and after a 12-h incubation by liquid-chromatography-coupled mass spectrometry (LC–MS)
# Conditions: 2 µM
row,Structure (SMILES),Bacterial Biotransformation
1,CC(C)(C(=O)O)c1ccc(C(O)CCCN2CCC(C(O)(c3ccccc3)c3ccccc3)CC2)cc1 (configuration not stated) [FEXOFENADINE],Compound NOT metabolized
2,CC(=O)OCC(CCn1cnc2cnc(N)nc21)COC(C)=O [FAMCICLOVIR],Compound NOT metabolized
3,Nc1nc(N)nc(-c2cc(Cl)ccc2Cl)n1.O=C(O)/C=C\C(=O)O [IRSOGLADINE MALEATE],Compound NOT metabolized

# Assay: The drug is tested on Bacteroides caccae strain: ATCC43185 for biotransformation. The drug concentrations were measured before and after a 12-h incubation by liquid-chromatography-coupled mass spectrometry (LC–MS)
# Conditions: 2 µM
row,Structure (SMILES),Bacterial Biotransformation
1,CC(C)(C(=O)O)c1ccc(C(O)CCCN2CCC(C(O)(c3ccccc3)c3ccccc3)CC2)cc1 (configuration not stated) [FEXOFENADINE],Compound NOT metabolized
2,CC(=O)OCC(CCn1cnc2cnc(N)nc21)COC(C)=O [FAMCICLOVIR],Compound metabolized
3,Nc1nc(N)nc(-c2cc(Cl)ccc2Cl)n1.O=C(O)/C=C\C(=O)O [IRSOGLADINE MALEATE],Compound NOT metabolized

# Conditions: segatella copri, 12 h, 2 µM
# Description: The drug is tested on Prevotella copri strain: DSM18205 for biotransformation. The drug concentrations were measured before and after a 12-h incubation by liquid-chromatography-coupled mass spectrometry (LC–MS)
row,Structure (SMILES),Bacterial Biotransformation
1,CC(C)(C(=O)O)c1ccc(C(O)CCCN2CCC(C(O)(c3ccccc3)c3ccccc3)CC2)cc1 (configuration not stated) [FEXOFENADINE],Compound NOT metabolized
2,CC(=O)OCC(CCn1cnc2cnc(N)nc21)COC(C)=O [FAMCICLOVIR],Compound metabolized
3,Nc1nc(N)nc(-c2cc(Cl)ccc2Cl)n1.O=C(O)/C=C\C(=O)O [IRSOGLADINE MALEATE],Compound NOT metabolized

# Assay: The drug is tested on Bacteroides cellulosilyticus strain: DSM14838 for biotransformation. The drug concentrations were measured before and after a 12-h incubation by liquid-chromatography-coupled mass spectrometry (LC–MS)
# Conditions: 2 µM
row,Structure (SMILES),Bacterial Biotransformation
1,CC(C)(C(=O)O)c1ccc(C(O)CCCN2CCC(C(O)(c3ccccc3)c3ccccc3)CC2)cc1 (configuration not stated) [FEXOFENADINE],Compound NOT metabolized
2,CC(=O)OCC(CCn1cnc2cnc(N)nc21)COC(C)=O [FAMCICLOVIR],Compound metabolized
3,Nc1nc(N)nc(-c2cc(Cl)ccc2Cl)n1.O=C(O)/C=C\C(=O)O [IRSOGLADINE MALEATE],Compound NOT metabolized

# Conditions: parabacteroides distasonis, 12 h, 2 µM
# Description: The drug is tested on Parabacteroides distasonis strain: ATCC8503 for biotransformation. The drug concentrations were measured before and after a 12-h incubation by liquid-chromatography-coupled mass spectrometry (LC–MS)
row,Structure (SMILES),Bacterial Biotransformation
1,CC(=O)OCC(CCn1cnc2cnc(N)nc21)COC(C)=O [FAMCICLOVIR],Compound metabolized

# Assay: The drug is tested on Ruminococcus lactaris strain: ATCC29176 for biotransformation. The drug concentrations were measured before and after a 12-h incubation by liquid-chromatography-coupled mass spectrometry (LC–MS)
# Conditions: 2 µM
row,Structure (SMILES),Bacterial Biotransformation
1,CC(=O)OCC(CCn1cnc2cnc(N)nc21)COC(C)=O [FAMCICLOVIR],Compound NOT metabolized
2,Nc1nc(N)nc(-c2cc(Cl)ccc2Cl)n1.O=C(O)/C=C\C(=O)O [IRSOGLADINE MALEATE],Compound NOT metabolized
